Laboratory results: EP4768499A1, “MACROCYCLIC PEPTIDE COMPOUND HAVING CELL MEMBRANE PERMEABILITY AND METABOLIC STABILITY, AND LIBRARY CONTAINING SAME” (Chugai Seiyaku Kabushiki Kaisha, priority 2023, dated 2025)
Read-outs that look alike come from different tables or passages of the source. Starred links: 1 amine or outer side, 2 acyl side, 3 side chain; linkers in the order of their positions; H or OH if unused. Non-standard residues stand in square brackets, D forms with d. Residues, ends and D or L forms follow the SMILES beside them. *: point of attachment. NMedβ3hAla = C[C@H](CC(=O)[*:2])N(C)[*:1]; NMeF = CN[C@@H](Cc1ccccc1)C(=O)O; NMeGABA = CN(CCCC(=O)[*:2])[*:1]; NMeI = CC[C@H](C)[C@H](NC)C(=O)O; NMeT = CN[C@H](C(=O)O)[C@@H](C)O; hPhe = N[C@@H](CCc1ccccc1)C(=O)O; NMeβAla = CN(CCC(=O)[*:2])[*:1]; NMeL = CN[C@@H](CC(C)C)C(=O)O; NMeV = CN[C@H](C(=O)O)C(C)C; d(β3hA) = C[C@@H](N)CC(=O)O; NMeAbu = CC[C@H](NC)C(=O)O; NMeA = CN[C@@H](C)C(=O)O; dNMeA = CN[C@H](C)C(=O)O; βAla = NCCC(=O)O; Sar = CNCC(=O)O; tBu = CC(C)(C)*

Tests used:
[1] = Metabolic stability test: liver microsomal stability assay; type: in vitro ADME, mouse; details: for microsomal CLint at 1 µM: male, pH 7.4, presence of NADPH, read-out: Mouse Hepatic Microsome CLh,int NADPH(+)
[2] = Membrane permeability test using Caco-2 cells with preincubation; type: in vitro ADME; details: Caco-2
Caco-2 cells = experiment: as above; type: in vitro ADME
[3] = mouse liver microsomes 0.5 mg protein/mL, compound 1 µM
[4] = mouse liver microsomes 0.5 mg protein/mL, compound 1 µM, absence of NADPH
[5] = preincubation 20 to 24 hours, Apical FaSSIF/HBSS pH 6.0, Basal HBSS 4% BSA pH 7.4, 180 minutes, read-out: Caco2 Papp
[6] = Caco-2 cells, preincubation 20 to 24 hours, apical FaSSIF/HBSS 1% DMSO pH 6.0, basal HBSS 4% BSA pH 7.4, basal sample at 180 minutes

SMILES	microsomal CLint at 1 µM [1, 3]	Mouse Hepatic Microsome CLh,int NADPH(-) [1, 4]	Papp A→B [2, 5]	Caco2 Papp (10^-6 cm/sec) (Caco-2 cells; [6])	Mouse Hepatic Microsome CLh,int NADPH(-) [1]	Papp A→B [2]	Caco2 Papp (10^-6 cm/sec) (Caco-2 cells; Caco-2)
CC[C@H](C)[C@@H]1NC(=O)[C@@H]2CCCN2C(=O)[C@H](C(C)C)N(C)C(=O)[C@@H](C)N(C)C(=O)C[C@@H](C)NC(=O)[C@H](C(C)C)N(C)C(=O)[C@H](Cc2ccccc2)N(C)C(=O)[C@H](COC(C)(C)C)NC(=O)[C@H](CC(C)C)N(C)C(=O)[C@H](C)N(C)C(=O)[C@H](CC(C)C)N(C)C(=O)[C@H]([C@@H](C)O)NC(=O)[C@H](Cc2ccccc2)N(C)C1=O [pd136] (cyclo(I[NMeF]T[NMeL][NMeA][NMeL]S(tBu)[NMeF][NMeV][d(β3hA)][dNMeA][NMeV]P))	27.2 µL/min/mg	28.8 µL/min/mg Protein	0.53 ×10⁻⁶ cm/s	0.53 10^-6 cm/sec			
CC[C@H](C)[C@@H]1NC(=O)[C@H](C)N(C)C(=O)CCCN(C)C(=O)C[C@@H](C)NC(=O)[C@H](C(C)C)N(C)C(=O)[C@H](CCc2ccccc2)NC(=O)[C@H](C)N(C)C(=O)[C@H]([C@@H](C)O)N(C)C(=O)[C@H](CC(C)C)N(C)C(=O)[C@H](C(C)C)NC(=O)[C@H](Cc2ccccc2)N(C)C(=O)[C@H](C)N(C)C(=O)[C@H](C(C)C)N(C)C1=O [pd137] (cyclo(I[NMeV][NMeA][NMeF]V[NMeL][NMeT][NMeA][hPhe][NMeV][d(β3hA)][NMeGABA][NMeA]))	14.1 µL/min/mg	7.5 µL/min/mg Protein	0.55 ×10⁻⁶ cm/s	0.55 10^-6 cm/sec			
CC[C@H](C)[C@@H]1NC(=O)[C@H](CC(C)C)N(C)C(=O)[C@H](C)N(C)C(=O)[C@H](Cc2ccccc2)N(C)C(=O)[C@@H]2CCCN2C(=O)[C@H](CC(C)C)N(C)C(=O)[C@H](CCc2ccccc2)NC(=O)CCN(C)C(=O)C[C@@H](C)NC(=O)[C@H](CC(C)C)N(C)C(=O)[C@H]([C@@H](C)O)NC(=O)CCN(C)C(=O)[C@H](C(C)C)N(C)C1=O [pd138] (cyclo(I[NMeV][NMeβAla]T[NMeL][d(β3hA)][NMeβAla][hPhe][NMeL]P[NMeF][NMeA][NMeL]))	39.3 µL/min/mg	11.1 µL/min/mg Protein	0.23 ×10⁻⁶ cm/s	0.23 10^-6 cm/sec			
CC[C@H](C)[C@@H]1NC(=O)[C@H](CC(C)C)N(C)C(=O)C[C@@H](C)NC(=O)[C@H](C(C)C)N(C)C(=O)[C@H](COC(C)(C)C)NC(=O)[C@H](CC)N(C)C(=O)[C@H](Cc2ccccc2)N(C)C(=O)[C@H](CC(C)C)NC(=O)[C@@H]2CCCN2C(=O)[C@H]([C@@H](C)O)N(C)C(=O)[C@H](CC(C)C)N(C)C(=O)[C@H](CC)N(C)C(=O)[C@H](CC(C)C)N(C)C1=O [pd139] (cyclo(I[NMeL][NMeAbu][NMeL][NMeT]PL[NMeF][NMeAbu]S(tBu)[NMeV][d(β3hA)][NMeL]))	32.3 µL/min/mg	28.2 µL/min/mg Protein	1.24 ×10⁻⁶ cm/s	1.24 10^-6 cm/sec			
CC[C@H]1C(=O)N(C)[C@@H](Cc2ccccc2)C(=O)N(C)[C@@H](CC(C)C)C(=O)N[C@@H](CC(C)C)C(=O)N(C)[C@@H](C(C)C)C(=O)N[C@H](C)CC(=O)N(C)CC(=O)N(C)[C@@H](C(C)C)C(=O)N(C)[C@@H](CC(C)C)C(=O)N(C)[C@@H](C)C(=O)N(C)[C@@H](CC(C)C)C(=O)N[C@@H]([C@@H](C)O)C(=O)N(C)CC(=O)N1C [pd140] (cyclo(L[NMeV][d(β3hA)][Sar][NMeV][NMeL][NMeA][NMeL]T[Sar][NMeAbu][NMeF][NMeL]))	10.5 µL/min/mg	10.3 µL/min/mg Protein	0.31 ×10⁻⁶ cm/s	0.31 10^-6 cm/sec			
CC[C@H](C)[C@@H]1NC(=O)[C@H](CC(C)C)N(C)C(=O)[C@H](CC(C)C)NC(=O)CCN(C)C(=O)C[C@@H](C)N(C)C(=O)[C@H](CC(C)C)N(C)C(=O)CNC(=O)[C@@H]2CCCN2C(=O)[C@H](CC(C)C)N(C)C(=O)CCNC(=O)[C@H]([C@@H](C)CC)N(C)C(=O)[C@H](CCc2ccccc2)NC(=O)[C@H](Cc2ccccc2)N(C)C1=O [pd141] (cyclo(G[NMeL][NMedβ3hAla][NMeβAla]L[NMeL]I[NMeF][hPhe][NMeI][βAla][NMeL]P))					21.1 µL/min/mg Protein	0.24 ×10⁻⁶ cm/s	0.24 10^-6 cm/sec
